Reference: PubChem BioAssay AID179 (DTP/NCI, 2004)
Activity calls are given as the source filed them.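 How the source made its calls: active means compounds giving half or more protection of infected cells from virus-caused growth loss, again on retest; inactive means the rest.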 Where a SMILES comes first, the peptide text is derived from it. The star is where a group is joined. Boc = CC(C)(C)OC(=O)*

Tested on: CEM cells HIV-1 protection, formazan growth assay
Test: NCI AIDS Antiviral Assay
Conditions: for IC50: measured here: growth of uninfected CEM cells
How it was run: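 Human CEM cells, uninfected and HIV-1-infected, received five drug concentrations, and growth was read by soluble formazan assay. Compounds giving at least 50% protection were retested; reproducible 100% protection defined confirmed active.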

SMILES	EC50 [µM]	IC50 [µM]	outcome
CC[N+]12CC[N+](CC)(CC1)C2	> 708	> 708	–
Cc1ccc(NC(=O)C(=O)CC(=O)C2CCOC2=O)c(C)c1 (stereo not drawn)	–	–	inactive
C#CC(O)/C=C/C(O)CCCC(O)CC#CC(O)C#CCCCCC(O)/C=C/CCCC(O)/C=C/CCCCCCCCCCCCCC(O)C(O)C#CC(=O)O (stereo not drawn)	> 50.1	28.8	–
O=C1c2ccccc2S(=O)(=O)c2c1cccc2[N+](=O)[O-]	> 200	0.851	–
CN(C)Cc1cc(C23CC4CC(CC(C4)C2)C3)cc(-c2ccccc2)c1O	–	–	inactive
COC(=O)Nc1cn2nc(C)sc2n1	> 200	> 200	–
CC(=N\N=C\c1ccccn1)/C(C)=N/N=C(C)/C(C)=N/N=C/c1ccccn1	–	–	inactive
O=C1CCCCN1	–	–	inactive
COC1(C)C(=O)N2C1N(C(=O)OC(C)(C)C)CC2(C)C (stereo not drawn)	> 380	> 380	–
CC(C)(/C=N\O)NO	> 200	> 200	–
CC1(C)OC(=O)C(c2ccsc2)C(=O)O1	> 1100	589	–
Cc1cc(C)nc(NS(=O)(=O)c2ccc(Nc3c4ccccc4nc4c(C(=O)N5CCN(CCOS(C)(=O)=O)CC5)ccc(Cl)c34)cc2)n1	> 30.9	> 30.9	–
O=C1/C(=C/c2cccc([N+](=O)[O-])c2)SC(=S)N1C1CC1	> 32.4	> 32.4	–
Cc1cc2c(c(C(=O)NCCC(=O)N[C@@H](C)C(=O)OCc3ccccc3)c1)Oc1c(cc(C)cc1C(=O)NCCC(=O)N[C@@H](C)C(=O)OCc1ccccc1)S2	> 200	> 200	–
COC(=O)C1=C(C(=O)[C@H](Cc2ccccc2)NC(=O)c2ccccc2)CCC1	> 95.5	89.1	–
COC1=CC(=C(c2ccc(O)c(OC)c2)c2ccc(O)c(OC)c2)C=CC1=O	> 200	3.55	–
COc1ccc(C(=O)C(c2ccc(OC)cc2)C2(O)C(=O)Nc3c2ccc(Cl)c3C)cc1 (stereo not drawn)	> 11.5	> 11.5	–
Cc1ccnc2c1C(=O)C(=O)C=C2N1CCCCC1	–	–	inactive
NNc1nc(Nc2ccccc2)nc(Nc2ccccc2)n1	> 200	38	–
CC(C)CC(NC(=O)C(Cc1cnc[nH]1)NC(=O)C(CC(N)=O)NC(=O)C(NC(=O)C(CO)NC(=O)C(Cc1ccc(O)cc1)NC(=O)C(CO)NC(=O)C(C)N)C(C)O)C(=O)O (stereo not drawn) (H-ASYSTNHL-OH; configuration not given here)	> 70.8	> 70.8	–
COCCOCC(=O)N(CCn1ccc(NC(c2ccccc2)(c2ccccc2)c2ccccc2)nc1=O)CCn1cnc2nc(N)[nH]c(=O)c21	28.8	60.3	–

SMILES	EC50 [µM]	IC50 [µM]	outcome
O=C(O)c1ccc(Nc2nc3ccccc3nc2-c2cccs2)cc1	> 200	60.3	–
C[n+]1c(-c2ccc(/C=N\NC(=O)c3cncc(C(=O)N/N=C/c4ccc(-c5cn6ccccc6[n+]5C)cc4)c3)cc2)cn2ccccc21	> 7.41	> 7.41	–
Cc1ccc(S(=O)(=O)/C(C#N)=C/NC(=S)Nc2cc(Cl)ccc2Cl)cc1	–	–	inactive
Clc1ccc2c(c1)Sc1ccc(Cl)cc1S2	> 200	> 200	–
O=C(N/C(=C\c1ccccc1)c1nc2ccccc2c(=O)o1)c1ccccc1	> 200	> 200	–
COc1c(OC)c(OC)c2c(=O)cc(-c3ccc4c(c3)OCO4)oc2c1OC	> 200	> 200	–
O=C1CCCNn2c(nc3ncccc3c2=O)N1	> 200	158	–
N#Cc1ccc(/C=C(/C(=O)c2ccccc2)c2ccccc2)cc1	> 17	9.55	–
COc1nc2ncn(C(C)=O)c2c(=O)n1C	–	–	inactive
CCCCCCCCCCCCSS(=O)(=O)c1ccccc1	> 75.9	> 75.9	–
O=C1CC2C(=O)N(Cc3ccccc3)C1C(S(=O)(=O)c1ccccc1)C2S(=O)(=O)c1ccccc1 (stereo not drawn)	–	–	inactive
CCCCC(=O)Oc1c(Cl)cc(C(=CCC[C@H]2CC[C@@]3(C)[C@@H](CC[C@@H]4[C@@H]3CC[C@]3(C)[C@@H](C(C)CCCC(C)C)CC[C@@H]43)C2)c2cc(Cl)c(OC(=O)CCCC)c(C(=O)O)c2)cc1C(=O)O (stereo partly drawn)	74.1	> 100	–
CCc1n[nH]c(=O)n1N1C(=O)CCC1=O	> 200	> 200	–
CCOC(=O)c1cc2nc(NC(=O)c3ccccc3)sc2n1C	> 200	> 200	–
COC1C(OC(=O)/C=C/C=C/C=C/C=C/C(=O)O)CCC2(CO2)C1C1(C)OC1CC=C(C)C (stereo not drawn)	> 0.2	0.178	–
COc1ccc(C2Oc3ccc(O)cc3[C@@H]2C)cc1OC (stereo partly drawn)	> 174	> 174	–
COC(=O)C(Cc1c[nH]c2ccccc12)NC(=O)C(Cc1c[nH]c2ccccc12)NC(=O)C(Cc1c[nH]c2ccccc12)NC(=O)C(Cc1c[nH]c2ccccc12)NC(=O)C(Cc1c[nH]c2ccccc12)NC(=O)C(Cc1c[nH]c2ccccc12)NC(=O)OC(C)(C)C (stereo not drawn) (Boc-WWWWWW-OMe; configuration not given here)	> 100	60.3	–
O=C(N/N=C/c1cccc2ccccc12)c1cccnc1	> 200	112	–
O=c1[nH]c(=O)n([C@@H]2C[C@H](CO)[C@H](O)C2)cc1/C=C/Br	> 759	275	–
Oc1c(C(O)c2ccccn2)ccc2ccccc12 (stereo not drawn)	> 200	36.3	–
C=C1c2ccccc2N(S(=O)(=O)c2ccc(C)cc2)C12CCCCC2	> 100	38	–

SMILES	EC50 [µM]	IC50 [µM]	outcome
COC(=O)c1cc2cc3c(c(O)c2c(=O)o1)O[C@@]1(Oc2c(O)c4c(c(O)c2[C@H]1OC1CC(OC)C(O)C(C)O1)C(=O)C=C(OC)C4=O)[C@H](O)C3 (stereo partly drawn)	> 200	3.31	–
CCC1c2ccc3cc(OC)ccc3c2CCC1(C)C(=O)O (stereo not drawn)	–	–	inactive
CCCCCCCCCCCCCCCCCCNc1nc(=O)n(C2CC(O)C(COP(=O)(O)OCC3OC(n4cc(C)c(=O)[nH]c4=O)CC3N=[N+]=[N-])O2)cc1F (stereo not drawn)	0.759	3.63	–
O=C1C=C(O)C(=Cc2c(O)cc(O)cc2O)C(O)=C1	–	–	inactive
Cc1ccc(-n2cc(-c3ccc(Cl)cc3)c3c(NN)ncnc32)cc1	> 200	3.72	–
NCCCN(CCCCN(CCCN)C(=O)OCc1ccccc1)C(=O)OCc1ccccc1	–	–	inactive
O=C1OC(C2Cc3ccc4c(c3C2=O)CCCC4)c2ccccc21 (stereo not drawn)	> 200	33.9	–
NC(=O)c1cccc(C2OC(COP(=O)(O)O)C(O)C2O)c1 (stereo not drawn)	> 661	3.47	–
CN(C)c1cc(CNCCS)nc(CNCCS)c1	> 200	3.47	–
CC(=O)O/N=C/c1ncccc1OC(C)=O	> 1120	> 1120	–
O=c1c2c(nc3n1CCC3)sc1c(O)c(Br)ccc12	> 200	11	–
CCCCc1c2c(nc3c1CCCC3O)/C(=C/c1ccccc1)CCC2 (stereo not drawn)	> 6.31	> 6.31	–
COC(c1cccc(C(O)(C(F)(F)F)C(F)(F)F)c1)(C(F)(F)F)C(F)(F)F	–	–	inactive
O=C1NC(N2CCOCC2)=N/C1=C\c1ccc(O)cc1	> 200	105	–
CC12CP(=O)(O)CC1C2(Cl)Cl (stereo not drawn)	> 200	> 200	–
CN(CCN(C)C(=S)NN)C(=S)NN	> 200	132	–
CC1(C)C(=O)NC(=O)c2ccccc21	> 200	> 200	–
O=c1c2cccnc2ncn1CCCN1CCCC1	–	–	inactive
CN1C(=O)CN=C(c2ccc[nH]2)c2cc(Cl)ccc21 (tested in a mixture with another compound)	11.2	79.4	–
CC1(C)Oc2ccc(C3=NO[C@@H]4C(=O)N(c5ccc(Cc6ccc(N7C(=O)[C@H]8C(c9ccc%10c(c9)OC(C)(C)O%10)=NO[C@H]8C7=O)cc6)cc5)C(=O)[C@H]34)cc2O1	> 91.2	> 91.2	–
CCOC(=O)c1c(N2CCOCC2)[nH]c(=O)c(C(c2cccs2)c2c(O)c(C(=O)OCC)c(N3CCOCC3)[nH]c2=O)c1O	> 200	> 200	–

SMILES	EC50 [µM]	IC50 [µM]	outcome
CCOC(=O)NC(Nc1ccc([N+](=O)[O-])cc1)(C(F)(F)F)C(F)(F)F	> 200	66.1	–
CC[C@@H]1NC(C(=O)OC)Cc2c1[nH]c1ccccc21 (stereo partly drawn)	–	–	inactive
CCOC(=O)/C(C#N)=C/c1ccc(Br)cc1	> 93.3	> 93.3	–
C#CC(C)(C)C(/C=N\NC(=O)O[C@H]1CC(C)CCC1C(C)C)CCC(=O)OC (stereo partly drawn)	> 200	25.1	–
COc1ccc(/C=C/C(=O)c2nc3ccccc3[nH]2)cc1	> 200	3.98	–
COC(=O)[C@@H]1COC(CC/C(C)=C/c2ccccc2)=N1	> 200	44.7	–
CC12CCC(=O)C=C1C=CC1C2CCC2(C)C1CCC21CCC(=O)O1 (stereo not drawn)	> 200	83.2	–
COc1ccc(C2OCC3C2CO[C@H]3c2ccc(OC)c(OC)c2)cc1OC (mixture of isomers)	> 200	93.3	–
CC(=O)C1=C(C)N2C(=NC3=C(CCc4ccccc43)C2c2ccc(Cl)cc2)S1 (stereo not drawn)	> 200	18.6	–
O=C(Nc1cccc2c1C(=O)c1c(NC(=O)c3ccccc3)ccc(Nc3cccc4c3C(=O)c3ccccc3C4=O)c1C2=O)c1ccccc1	> 200	120	–
COc1ccc(-c2csc(=[N+]3CCCCC3)s2)cc1	–	–	inactive
CC1(CCCCO)C=CC(S(=O)(=O)c2ccccc2)CC1 (stereo not drawn)	–	–	inactive
COc1cccc(NC(=O)CC(=O)N2N=C(N(CCC#N)c3ccccc3C)CC2c2ccccc2)c1 (stereo not drawn)	> 501	> 501	–
C#CC1(O)C(CO)OC(n2ccc(=O)[nH]c2=O)C1O[Si](C)(C)C(C)(C)C (stereo not drawn)	> 200	27.5	–
O=c1[nH]nc(Cc2ccccc2)n1-n1cnnc1	> 200	> 200	–
Cn1nc(-c2ccc(Cl)c(Cl)c2)[n+]([O-])c2c(=O)n(C)c(=O)nc1-2	> 200	1.38	–
Cc1cc(Cc2cccc3ccccc23)nc2c1ccc1ccccc12	> 200	110	–
CC1CCSC(N(C(=O)N(C)c2ccccc2)c2ccccc2)=N1 (stereo not drawn)	> 741	724	–
CCCNC(=S)/N=C/c1c(O)c2ccccc2[nH]c1=O	> 200	> 200	–
